Patent US7202280B2, “Methods for the treatment and prevention of pancreatitis and for induction of liver regeneration” (priority 2002, dated 2007)

System: syngenic and metallothionein-SSAT mice
Test: Hepatic, pancreatic and renal polyamine concentration in syngenic and metallothionein-SSAT mice after analogue
Assay type: in vivo, mouse
Conditions: 24 h before sacrifice
Protocol: α-methylspermidine, Bis-α-methylspermine and α-methylspermine were administered in saline. […] The data are expressed as means ±S.D. For statistical analysis, the two-tailed Student's t test was used.

[1] = Tg (transgenic) mice, 12.5 mg/kg
[2] = Tg (transgenic) mice, 37.5 mg/kg

CC(N)CCNCCCCNCCC(C)N (stereo not drawn) [bis-α-methylspermine, 1,12-dimethylspermine]
pancreatic polyamine concentration, Spermidine (Sg (syngenic) mice, 50 mg/kg): 5613.06 ± 608.55 ^++ pmoles/mg tissue wet weight
pancreatic polyamine concentration, Spermine (Sg (syngenic) mice, 50 mg/kg): 561.50 ± 77.66 ^++ pmoles/mg tissue wet weight
renal concentration, Bis-α-Methylspermine (Sg (syngenic) mice, 50 mg/kg): 459.26 pmoles/mg tissue wet weight
renal polyamine concentration, N^8-Acetylspermidine (Sg (syngenic) mice, 50 mg/kg): 21.07 ± 5.81 pmoles/mg tissue wet weight
renal polyamine concentration, Putrescine (Sg (syngenic) mice, 50 mg/kg): 98.32 pmoles/mg tissue wet weight
renal polyamine concentration, Spermidine (Sg (syngenic) mice, 50 mg/kg): 248.63 pmoles/mg tissue wet weight
renal polyamine concentration, Spermine (Sg (syngenic) mice, 50 mg/kg): 424.06 pmoles/mg tissue wet weight
hepatic concentration, Bis-α-Methylspermine [1]: 29.55 pmoles/mg tissue wet weight
hepatic polyamine concentration, N^1-Acetylspermidine [1]: 226.74 pmoles/mg tissue wet weight
hepatic polyamine concentration, N^8-Acetylspermidine [1]: 9.43 pmoles/mg tissue wet weight
hepatic polyamine concentration, Putrescine [1]: 944.38 pmoles/mg tissue wet weight
hepatic polyamine concentration, Spermidine [1]: 792.81 pmoles/mg tissue wet weight
hepatic polyamine concentration, Spermine [1]: 104.48 pmoles/mg tissue wet weight
pancreatic polyamine concentration, N^1-Acetylspermidine [1]: 267.18 pmoles/mg tissue wet weight
pancreatic polyamine concentration, Putrescine [1]: 6168.51 ± 1253.00 pmoles/mg tissue wet weight
pancreatic polyamine concentration, Spermidine [1]: 3646.27 ± 367.99 pmoles/mg tissue wet weight
pancreatic polyamine concentration, Spermine [1]: 187.07 ± 5.15 pmoles/mg tissue wet weight
renal polyamine concentration, N^1-Acetylspermidine [1]: 19.74 pmoles/mg tissue wet weight
renal polyamine concentration, N^8-Acetylspermidine [1]: 16.35 ± 1.03 pmoles/mg tissue wet weight
renal polyamine concentration, Putrescine [1]: 184.32 pmoles/mg tissue wet weight
renal polyamine concentration, Spermidine [1]: 235.80 pmoles/mg tissue wet weight
renal polyamine concentration, Spermine [1]: 739.17 pmoles/mg tissue wet weight
hepatic concentration, Bis-α-Methylspermine (Tg (transgenic) mice, 25 mg/kg): 105.83 pmoles/mg tissue wet weight
hepatic polyamine concentration, N^1-Acetylspermidine (Tg (transgenic) mice, 25 mg/kg): 219.53 pmoles/mg tissue wet weight
hepatic polyamine concentration, N^8-Acetylspermidine (Tg (transgenic) mice, 25 mg/kg): 9.03 pmoles/mg tissue wet weight
hepatic polyamine concentration, Putrescine (Tg (transgenic) mice, 25 mg/kg): 895.27 pmoles/mg tissue wet weight
hepatic polyamine concentration, Spermidine (Tg (transgenic) mice, 25 mg/kg): 673.04 pmoles/mg tissue wet weight
hepatic polyamine concentration, Spermine (Tg (transgenic) mice, 25 mg/kg): 66.74 pmoles/mg tissue wet weight
pancreatic concentration, Bis-α-Methylspermine (Tg (transgenic) mice, 25 mg/kg): 315.13 ± 82.18 pmoles/mg tissue wet weight
pancreatic polyamine concentration, N^1-Acetylspermidine (Tg (transgenic) mice, 25 mg/kg): 474.31 pmoles/mg tissue wet weight
pancreatic polyamine concentration, N^8-Acetylspermidine (Tg (transgenic) mice, 25 mg/kg): 64.06 pmoles/mg tissue wet weight
pancreatic polyamine concentration, Putrescine (Tg (transgenic) mice, 25 mg/kg): 7573.46 ± 1084.90 pmoles/mg tissue wet weight
pancreatic polyamine concentration, Spermidine (Tg (transgenic) mice, 25 mg/kg): 3389.87 ± 447.32 pmoles/mg tissue wet weight
pancreatic polyamine concentration, Spermine (Tg (transgenic) mice, 25 mg/kg): 73.43 ± 6.82 pmoles/mg tissue wet weight
renal concentration, Bis-α-Methylspermine (Tg (transgenic) mice, 25 mg/kg): 315.13 pmoles/mg tissue wet weight
renal polyamine concentration, N^1-Acetylspermidine (Tg (transgenic) mice, 25 mg/kg): 25.57 pmoles/mg tissue wet weight
renal polyamine concentration, N^8-Acetylspermidine (Tg (transgenic) mice, 25 mg/kg): 17.52 ± 3.88 pmoles/mg tissue wet weight
renal polyamine concentration, Putrescine (Tg (transgenic) mice, 25 mg/kg): 137.26 pmoles/mg tissue wet weight
renal polyamine concentration, Spermidine (Tg (transgenic) mice, 25 mg/kg): 216.59 pmoles/mg tissue wet weight
renal polyamine concentration, Spermine (Tg (transgenic) mice, 25 mg/kg): 565.06 pmoles/mg tissue wet weight
hepatic concentration, Bis-α-Methylspermine [2]: 158.82 pmoles/mg tissue wet weight
hepatic polyamine concentration, N^1-Acetylspermidine [2]: 355.10 pmoles/mg tissue wet weight
hepatic polyamine concentration, N^8-Acetylspermidine [2]: 19.03 pmoles/mg tissue wet weight
hepatic polyamine concentration, Putrescine [2]: 1032.66 pmoles/mg tissue wet weight
hepatic polyamine concentration, Spermidine [2]: 404.05 pmoles/mg tissue wet weight
hepatic polyamine concentration, Spermine [2]: 74.10 pmoles/mg tissue wet weight
pancreatic concentration, Bis-α-Methylspermine [2]: 421.62 ± 147.44 pmoles/mg tissue wet weight
pancreatic polyamine concentration, N^1-Acetylspermidine [2]: 339.96 pmoles/mg tissue wet weight
pancreatic polyamine concentration, N^8-Acetylspermidine [2]: 90.85 pmoles/mg tissue wet weight
pancreatic polyamine concentration, Putrescine [2]: 8158.57 ± 2876.94 pmoles/mg tissue wet weight
pancreatic polyamine concentration, Spermidine [2]: 2268.60 ± 1821.72 pmoles/mg tissue wet weight
pancreatic polyamine concentration, Spermine [2]: 98.77 ± 82.83 pmoles/mg tissue wet weight
renal concentration, Bis-α-Methylspermine [2]: 421.62 pmoles/mg tissue wet weight
renal polyamine concentration, N^1-Acetylspermidine [2]: 27.37 pmoles/mg tissue wet weight
renal polyamine concentration, N^8-Acetylspermidine [2]: 16.82 ± 4.23 pmoles/mg tissue wet weight
renal polyamine concentration, Putrescine [2]: 225.66 pmoles/mg tissue wet weight
renal polyamine concentration, Spermidine [2]: 185.57 pmoles/mg tissue wet weight
renal polyamine concentration, Spermine [2]: 426.59 pmoles/mg tissue wet weight
hepatic concentration, Bis-α-Methylspermine (Tg (transgenic) mice, 50 mg/kg): 300.81 pmoles/mg tissue wet weight
hepatic polyamine concentration, N^1-Acetylspermidine (Tg (transgenic) mice, 50 mg/kg): 207.30 pmoles/mg tissue wet weight
hepatic polyamine concentration, N^8-Acetylspermidine (Tg (transgenic) mice, 50 mg/kg): 19.27 pmoles/mg tissue wet weight
hepatic polyamine concentration, Putrescine (Tg (transgenic) mice, 50 mg/kg): 717.95 pmoles/mg tissue wet weight
hepatic polyamine concentration, Spermidine (Tg (transgenic) mice, 50 mg/kg): 293.21 pmoles/mg tissue wet weight
hepatic polyamine concentration, Spermine (Tg (transgenic) mice, 50 mg/kg): 69.63 pmoles/mg tissue wet weight
pancreatic concentration, Bis-α-Methylspermine (Tg (transgenic) mice, 50 mg/kg): 400.64 ± 63.85 pmoles/mg tissue wet weight
pancreatic polyamine concentration, N^1-Acetylspermidine (Tg (transgenic) mice, 50 mg/kg): 288.51 pmoles/mg tissue wet weight
pancreatic polyamine concentration, Putrescine (Tg (transgenic) mice, 50 mg/kg): 5123.85 ± 573.32 pmoles/mg tissue wet weight
pancreatic polyamine concentration, Spermidine (Tg (transgenic) mice, 50 mg/kg): 2326.21 ± 126.42 pmoles/mg tissue wet weight
pancreatic polyamine concentration, Spermine (Tg (transgenic) mice, 50 mg/kg): 119.48 ± 37.92 pmoles/mg tissue wet weight
renal concentration, Bis-α-Methylspermine (Tg (transgenic) mice, 50 mg/kg): 400.64 pmoles/mg tissue wet weight
renal polyamine concentration, N^8-Acetylspermidine (Tg (transgenic) mice, 50 mg/kg): 12.21 ± 4.20 pmoles/mg tissue wet weight
renal polyamine concentration, Putrescine (Tg (transgenic) mice, 50 mg/kg): 173.97 pmoles/mg tissue wet weight
renal polyamine concentration, Spermidine (Tg (transgenic) mice, 50 mg/kg): 204.20 pmoles/mg tissue wet weight
renal polyamine concentration, Spermine (Tg (transgenic) mice, 50 mg/kg): 481.68 pmoles/mg tissue wet weight
